{"source": "patent US20120015907A1", "about": "“Furopyridine compounds and uses thereof” (NOVARTIS AG, priority 2010, published 2012)", "key": {"HCV polymerase": {"target": "T1, HCV polymerase (Hepatitis C virus genotype 1b, UniProt Q9WMX2)", "T1 construct": "(His)6 (C)", "assay": "biochemical", "conditions": "polymerase assay of Biological Example 1; read-out: NS5B polymerase IC50"}, "[1]": {"test_system": "HCV replicon I389luc-ubi-neo/NS3-3'/ET in ET (Huh-lucubineo-ET) cells", "assay": "Replicon assay (Biological Example 2), luciferase read-out", "format": "cell-based", "conditions": "Hepatitis C virus, luciferase activity 48 hours after compound addition", "method_in_brief": "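ET cells stably carry the replicon with adaptive mutations E1202G, […] and K1846T. Compound is added 24 h after plating at 0.1 nM–50 μM final (10-point, 3-fold dilutions) with 0.5% DMSO, and luciferase is read 48 h later. EC50 comes from a Hill-equation fit of % inhibition versus no-compound control.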"}}}
{"smiles": "CNC(=O)c1c(-c2ccc(C)cc2)oc2nc(N(CCCCS(C)(=O)=O)S(C)(=O)=O)c(C3CC3)cc12", "note": "[Example 25.6, 5-cyclopropyl-N-methyl-6-(N-(4-(methylsulfonyl)butyl)methylsulfonamido)-2-p-tolylfuro[2,3-b]pyridine-3-carboxamide]", "values": [{"measurement": "IC50", "setting": "HCV polymerase", "result": 2, "unit": "nM"}, {"measurement": "IC50", "setting": "[1]", "result": "≤ 100", "unit": "nM"}]}
{"smiles": "CNC(=O)c1c(-c2ccc(Cl)cc2)oc2nc(N(CCCCS(C)(=O)=O)S(C)(=O)=O)c(I)cc12", "note": "[Example 18.995, 2-(4-chlorophenyl)-5-iodo-N-methyl-6-(N-(4-(methylsulfonyl)butyl)methylsulfonamido)furo[2,3-b]pyridine-3-carboxamide]", "values": [{"measurement": "IC50", "setting": "HCV polymerase", "result": 14, "unit": "nM"}, {"measurement": "IC50", "setting": "[1]", "result": "≤ 100", "unit": "nM"}]}
{"smiles": "CNC(=O)c1c(-c2ccc(F)cc2)oc2nc(N(CCCCCS(C)(=O)=O)S(C)(=O)=O)c(C3CC3)cc12", "note": "[Example 26.2, 5-cyclopropyl-2-(4-fluorophenyl)-N-methyl-6-(N-(5-(methylsulfonyl)pentyl)methylsulfonamido) furo[2,3-b]pyridine-3-carboxamide]", "values": [{"measurement": "IC50", "setting": "HCV polymerase", "result": 4, "unit": "nM"}, {"measurement": "IC50", "setting": "[1]", "result": "≤ 100", "unit": "nM"}]}
{"smiles": "CNC(=O)c1c(-c2ccc(F)cc2)oc2nc3c(cc12)C(C)C(O)CCN3S(C)(=O)=O", "note": "(centres unmarked) [Example 31, 2-(4-Fluoro-phenyl)-6-hydroxy-9-methanesulfonyl-5-methyl-6,7,8,9-tetrahydro-5H-1-oxa-9,10-diaza-cyclohepta[f]indene-3-carboxylic acid methylamide]", "values": [{"measurement": "IC50", "setting": "HCV polymerase", "result": 35, "unit": "nM"}, {"measurement": "IC50", "setting": "[1]", "result": "≤ 100", "unit": "nM"}]}
{"smiles": "CNC(=O)c1c(-c2ccc(C)cc2)oc2nc(N(CCCS(C)(=O)=O)S(C)(=O)=O)c(C3CC3)cc12", "note": "[Example 25.3, 5-cyclopropyl-N-methyl-6-(N-(3-(methylsulfonyl)propyl)methylsulfonamido)-2-p-tolylfuro[2,3-b]pyridine-3-carboxamide]", "values": [{"measurement": "IC50", "setting": "HCV polymerase", "result": 1, "unit": "nM"}, {"measurement": "IC50", "setting": "[1]", "result": "≤ 100", "unit": "nM"}]}
{"smiles": "CNC(=O)c1c(-c2ccc(C3CC3)cc2)oc2nc(N(CCCCS(C)(=O)=O)S(C)(=O)=O)c(C3CC3)cc12", "note": "[Example 25.9, 5-cyclopropyl-2-(4-cyclopropylphenyl)-N-methyl-6-(N-(4-(methylsulfonyl)butyl)methylsulfonamido)furo[2,3-b]pyridine-3-carboxamide]", "values": [{"measurement": "IC50", "setting": "HCV polymerase", "result": 3, "unit": "nM"}, {"measurement": "IC50", "setting": "[1]", "result": "≤ 100", "unit": "nM"}]}
{"smiles": "CNC(=O)c1c(-c2ccc(F)cc2)oc2nc3c(cc12)CCCCCN3S(C)(=O)=O", "note": "[Example 36, 2-(4-Fluoro-phenyl)-10-methanesulfonyl-5,6,7,8,9,10-hexahydro-1-oxa-10,11-diaza-cycloocta[f]indene-3-carboxylic acid methylamide]", "values": [{"measurement": "IC50", "setting": "HCV polymerase", "result": 50, "unit": "nM"}, {"measurement": "IC50", "setting": "[1]", "result": "≤ 100", "unit": "nM"}]}
{"smiles": "CNC(=O)c1c(-c2ccc(C)cc2)oc2nc(N(CCCS(C)(=O)=O)S(C)(=O)=O)c(I)cc12", "note": "[Example 18.994, 5-iodo-N-methyl-6-(N-(3-(methylsulfonyl)propyl)methylsulfonamido)-2-p-tolylfuro[2,3-b]pyridine-3-carboxamide]", "values": [{"measurement": "IC50", "setting": "HCV polymerase", "result": 14, "unit": "nM"}, {"measurement": "IC50", "setting": "[1]", "result": "≤ 100", "unit": "nM"}]}
{"smiles": "CNC(=O)c1c(-c2ccc(C)cc2)oc2nc(N(CC[C@H]3C[C@@H]3C(=O)O)S(C)(=O)=O)c(C3CC3)cc12", "note": "[Example 28.2, (1S,2R)-2-(2-(N-(5-cyclopropyl-3-(methylcarbamoyl)-2-p-tolylfuro[2,3-b]pyridin-6-yl)methylsulfonamido)ethyl) cyclopropanecarboxylic acid]", "values": [{"measurement": "IC50", "setting": "HCV polymerase", "result": 2, "unit": "nM"}, {"measurement": "IC50", "setting": "[1]", "result": "≤ 100", "unit": "nM"}]}
{"smiles": "CNC(=O)c1c(-c2ccc(F)cc2)oc2nc(N(CCCCC(=O)OC)S(C)(=O)=O)c(C3CC3)cc12", "note": "[Example 26.8, methyl 5-(N-(5-cyclopropyl-2-(4-fluorophenyl)-3-(methylcarbamoyl)furo[2,3-b]pyridin-6-yl)methylsulfonamido) pentanoate]", "values": [{"measurement": "IC50", "setting": "HCV polymerase", "result": 5, "unit": "nM"}, {"measurement": "IC50", "setting": "[1]", "result": "≤ 100", "unit": "nM"}]}
